From US8343760B2, “p53 activator peptides” (University of Maryland, Baltimore, priority 2008, dated 2013)
Where a SMILES comes first, the peptide text is derived from it. Bridges are numbered along the chain shown (N, C = ends).

How the values were obtained:
[1] = system: p53 wild type HCT116 cells; assay: Tumor cell killing, MTS OD and Trypan blue cell count, HCT116; settings: for reduction in HCT116 cell count: HCT116, added daily for three days; for reduction in cell viability as measured by MTS OD / reduction in cell number (Trypan blue cell count): HCT116, single dose, peptides 100 μg/ml, Nutlin-3 10 μg/ml; for reduction in cell viability as measured by MTS OD: after 3 days; for reduction in cell number (Trypan blue cell count): assessed after 3 days
Protocol: (§1) Nutlin-3, a known small molecule inhibitor of the p53-MDM2 interaction, was given at 10 μg/ml as a positive control. Briefly, HCT116 cells (10,000/well) were plated overnight in McCoy's 5A modified medium (1×) supplemented with 1% pen-strep and 10% heat inactivated FBS. SW480 cells (10,000/well) were plated overnight in DMEM 1× medium, 1% pen-strep and 10% heat inactivated FBS (all reagents were from GIBCO). Cells were treated the next day with the indicated compound and then OD and cell count assessed after 3 days (left column) or peptides were added every day for three day and then OD and cell count were assessed (right column). OD was measured with the MTS kit (Cell titer 96 aqueous non-radioactive cell proliferation assay, Promega). Trypan blue incorporation was used to determine number of cells alive and dead.

[2] = system: p53 mutated SW480 cells; assay: Tumor cell killing, MTS OD and Trypan blue cell count, SW480; settings: SW480, added daily for three days
Protocol: as §1

[3] = target: T1, synMDM2 (Homo sapiens, UniProt Q00987); assay: Trp fluorescence spectroscopy on addition of synMDM2; type: binding
T1 construct: synthetic MDM2—comprising amino acids 25-109 of the full length MDM2 protein; made in house; host or cells: chemical synthesis (no expression host)
T1 sequence (Q00987 25-109): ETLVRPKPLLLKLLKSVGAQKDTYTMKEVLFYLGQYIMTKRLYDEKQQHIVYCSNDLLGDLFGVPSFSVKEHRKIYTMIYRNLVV
Source text: Stoppin-1 was characterized using CD and fluorescence spectroscopy. […] The CD results are entirely consistent with the known structural features of BmBKTx1. As is the case with ^(15-29)p53, the only Trp residue engineered into stoppin-1 is fully solvent exposed in aqueous solution (buffer) as evidenced by the Trp fluorescence maximum (356 nm).
Stoppin-1 was derivatived by making five additional substitutions in its C-terminal region, resulting in a heavily cationic new peptide termed stoppin-2 of the following amino acid sequence: […] (SEQ ID NO:2). Specifically, Ser^18, Ser^19, Ile^23, Asn^24, and Ser^25 (BmBKTx1 numbering) were replaced with Arg, generating a miniprotein with eight cationic residues (including three existing Lys residues) clustered in the C-terminal β-hairpin region. Stoppin-2 was then chemically synthesized and oxidatively folded using procedures previously described herein. The correct folding of stoppin-2 was verified by disulfide mapping using trypsin/CNBr fragmentation coupled with LC-MS analysis. The interaction of stoppin-2 with MDM2/MDMX was characterized using fluorescence spectroscopy.

[4] = target: T2, synMDMX (synthetic MDMX, amino acids 24-108 of the full length MDMX protein) (Homo sapiens, UniProt O15151); assay: SPR-based competition binding assay, synMDMX vs immobilized 15-29p53; settings: stoppin-1 relative to 15-29p53
T2 construct: synthetic MDMX—comprising amino acids 24-108 of the full length MDMX protein; made in house; host or cells: chemical synthesis (no expression host)
T2 sequence (O15151 24-108): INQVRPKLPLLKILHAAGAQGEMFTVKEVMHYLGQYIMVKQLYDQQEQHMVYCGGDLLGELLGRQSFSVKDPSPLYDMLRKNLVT
Protocol: Each curve is the mean of four independent measurements at 25° C. in 10 mM HEPES, 150 mM NaCl, 0.005% surfactant P20, pH 7.4. […] Specifically, ^(15-29)p53 was immobilized on a CM5 sensor chip for kinectic analysis of a fixed concentration of ^synMDM2 (50 nM) or ^synMDMX (100 nM) pre-incubated with varying concentrations of stoppin-1 at room temperature. ^(15-29)p53 was used as a control in the competition binding assay. […] To facilitate comparison, several other compounds were included in the panel: ^(15-29)p53, ^(17-28)p53, and Nutlin-3 (a racemic mixture of Nutlin-3a and Nutlin-3b).

Row | Compound | reduction in HCT116 cell count [1] | reduction in cell viability as measured by MTS OD [1] | reduction in cell number (Trypan blue cell count) [1] | effect against SW480 [2] | shift of Trp fluorescence maximum on addition of synMDM2 (from-to) [3] | fold lower binding affinity for synMDMX than 15-29p53 [4] | shift of Trp fluorescence on addition of synMDM2 ([3]; from 356 nm to 328 nm) [nm]
1 | COc1ccc(C2=N[C@@H](c3ccc(Cl)cc3)[C@@H](c3ccc(Cl)cc3)N2C(=O)N2CCNC(=O)C2)c(OC(C)C)c1 [Nutlin-3, reference compound] | ~90% | reduction in HTC cell viability | over 80% | ineffective | – | – | –
2 | CYSFDCLWKCLAMGFRRGKCRRRKCKC [stoppin-2, heavily cationic derivative of stoppin-1 with five Arg substitutions] | killed the cells quantitatively | reduction in HTC cell viability | ~70% | ineffective | 356 nm to 328 nm | – | –
3 | CC[C@H](C)[C@@H]1NC(=O)[C@@H]2CSSC[C@H](N)C(=O)N[C@@H](Cc3ccc(O)cc3)C(=O)N[C@@H](CO)C(=O)N[C@@H](Cc3ccccc3)C(=O)N[C@@H](CC(=O)O)C(=O)N[C@H]3CSSC[C@H](NC(=O)[C@H](CCCCN)NC(=O)[C@H](CO)NC(=O)[C@H](CC(N)=O)NC1=O)C(=O)N[C@@H](CCCCN)C(=O)N[C@H](C(=O)O)CSSC[C@H](NC(=O)[C@H](CCCCN)NC(=O)[C@H](Cc1c[nH]c4ccccc14)NC(=O)[C@H](CC(C)C)NC3=O)C(=O)N[C@@H](CC(C)C)C(=O)N[C@@H](C)C(=O)N[C@@H](CCSC)C(=O)NCC(=O)N[C@@H](Cc1ccccc1)C(=O)N[C@@H](CO)C(=O)N[C@@H](CO)C(=O)NCC(=O)N[C@@H](CCCCN)C(=O)N2 [stoppin-1] (H-CYSFDCLWKCLAMGFSSGKCINSKCKC-OH; disulfide 1-20, 6-25, 10-27) | – | – | minimal | ineffective | 356 nm to 328 nm | approximately 4 fold | 28
